In US9790207B2, “Pan-genomic inhibitors of NS5A protein encoded by HCV, pharmaceutical compositions, intermediates for inhibitor synthesis, and their synthesis and application methods” (priority 2015, dated 2017):
Structures can show the parent of a compound that is named as a salt. Where two headings read alike, the source gives them in different places.

Key:
[1] = system: HCV gT1b replicon; experiment: HCV replicon assay, gT1b; assay type: cell-based, Hepatitis C virus (HCV); details: Huh7 replicon cells, mean value
Procedure: (§1) The HCV replicon assay was used to determine the antiviral activity of compounds of general formula 2 (test compounds). The test cell line used in the HCV Replicon Assay was the human hepatoma cell line Huh7 incorporating the HCV replicons synthesized by an outside vendor.
(§2) 96-well plates were seeded with cells at a density of 7.5×10^3 cells per well in 50 μl of assay media. The compound stock solution was made up freshly in an assay medium (DMEM 1×, Cellgro; cat. #10-013-CV) as a 2× stock. A total of 11 serial 3-fold dilutions of test compounds were prepared from the 2× stock in the assay media ranging from 20 nM-0.2 pM final concentrations. At least 4 hours after seeding the cells, compound treatment was initiated by adding 50 μl of compound dilution to the plates. The final concentrations of compound therefore ranged from 10 nM to 0.1 pM when diluted 1:1 in culture media. The final DMSO concentration was 0.5%. Cells and inhibitors were incubated for 3 days at 37° C./5% CO2. The media was removed from the plates by gentle tapping. The cells were fixed with 100 μl 1:1 acetone:methanol for 1 minute, washed three times with PBS buffer, and then blocked with 150 μl/well 10% Fetal Bovine Serum (FBS) in PBS for 1 hour at room temperature. The cells were then washed three times with PBS buffer and incubated with 100 μl/well anti-hepatitis C core mAb (Affinity BioReagents; cat. # MA1-080, 1 mg/ml stock diluted 1:4,000 in 10% FBS-PBS) for 2 hours at 37° C. Then, the cells were washed three times with PBS and incubated with 100 μl/well HRP-Goat Anti-Mouse antibody (diluted 1:3.500 in 10% FBS-PBS) for 1 hour at 37° C. The cells were then washed three times with PBS and developed with an OPD solution, 100 μl/well (1 OPD tablet+12 ml citrate/phosphate buffer+5 μl 30% H2O2 per plate), for 30 minutes in the dark at room temperature. The reaction was stopped with 2N H2SO4 (100 μl/well), and the absorbance was measured at A490 X on a Victor^3 V 1420 multilabel counter (Perkin Elmer).

[2] = system: HCV gT1a replicon; experiment: HCV replicon assay, gT1a; assay type: cell-based, Hepatitis C virus (HCV); details: Huh7 replicon cells, mean
Procedure: as §1, §2

[3] = system: HCV gT2a replicon; experiment: HCV replicon assay, gT2a; assay type: cell-based, Hepatitis C virus (HCV); details: Huh7 replicon cells, mean
Procedure: as §1, §2

[4] = system: HCV gT3a replicon; experiment: HCV replicon assay, gT3a; assay type: cell-based, Hepatitis C virus (HCV)
Procedure: as §1, §2

[5] = system: HCV gT4a replicon; experiment: HCV replicon assay, gT4a; assay type: cell-based, Hepatitis C virus (HCV)
Procedure: as §1, §2

[6] = system: HCV gT5a replicon; experiment: HCV replicon assay, gT5a; assay type: cell-based, Hepatitis C virus (HCV)
Procedure: as §1, §2

[7] = Cytotoxicity, cell viability by ATPLite Kit; assay type: cell-based, human; details: human, Huh7 cells (human hepatoma cell line), 10% FBS, maximal inhibition, read-out: Cytotox gT1b 10% FBS max. inh.
Procedure: (§3) The cytotoxicity of the test compounds was studied in parallel using the same cell line, Huh7. Cell viability was determined using the ATPLite Kit (Perkin-Elmer, Boston, USA), according to manufacturer's instructions. 96-well black/transparent bottom plates were seeded with cells at a density of 7.5×10^3 cells per well in 50 μl medium. After 18 hours, compound treatment was initiated by adding 50 μl of compound dilution into the plates. Each compound dilution was tested in triplicates. The cells and inhibitors were then incubated for 96 hours at 37° C./5% CO2. The plates were washed twice with PBS (0.2 ml/well), and then lysed by adding lysis buffer, 0.05 ml/well (all reagents were included with the ATPLite Kit). After rocking for 5 min on a rocking platform, substrate buffer was added (0.05 ml/well). After additional 5-min incubation, the plates were kept in dark for 10 min, and the luminescence was read using TopCount NXT (Packard, Perkin Elmer). CC50 values for all test compounds were determined using XLfit 4.1 software (Table 2).

[8] = Bioavailability of new inhibitors in rats; details: rat, in vivo
[9] = system: human hepatoma cell line Huh7; experiment: Cytotoxicity, cell viability by ATPLite Kit; assay type: cell-based; details: 96 hours, maximal inhibition
Procedure: as §3

[10] = system: HCV Genotype NS5A GT1a; details: known inhibitors, literature values; cited from earlier work
[11] = system: HCV Genotype NS5A GT1b; details: known inhibitors, literature values; cited from earlier work
[12] = system: HCV Genotype NS5A GT2a; details: known inhibitors, literature values, cited from earlier work
[13] = system: HCV Genotype NS5A GT3a; details: known inhibitors, literature values, cited from earlier work
[14] = system: HCV Genotype NS5A GT4a; details: known inhibitors, literature values; cited from earlier work
[15] = system: HCV Genotype NS5A GT5a; details: known inhibitors, literature values; cited from earlier work
[16] = known inhibitors, literature values; cited from earlier work
[17] = Hepatitis C virus, GT1B, Huh-7, 10% FBS, read-out: gT1b 10% FBS, EC50 (pM) mean
[18] = Hepatitis C virus, GT1B, Huh-7, 40% NHS, read-out: gT1b 40% NHS, EC50 (pM) mean
[19] = Hepatitis C virus, GT3A, Huh-7, Huh7 replicon cells, mean, read-out: gT3a, EC50 (pM) mean
[20] = Hepatitis C virus, GT4A, Huh-7, read-out: gT4a, EC50 (pM) mean
[21] = Hepatitis C virus, GT5A, Huh-7, read-out: gT5a, EC50 (pM) mean

Row | SMILES | EC50 [1, 17] | EC50 [1, 18] | EC50 ([2]; Hepatitis C virus, GT1A, Huh-7) | EC50 ([3]; Hepatitis C virus, GT2A, Huh-7) | EC50 [4, 19] | EC50 [5, 20] | EC50 [6, 21] | inhibition at 96 h [7] | EC50 [10] | EC50 [11] | EC50 [12] | EC50 [14] | further results
1 | COC(=O)N[C@H](C(=O)N1CCC[C@H]1c1ncc(-c2ccc(C#CC#Cc3cnc([C@@H]4CCCN4C(=O)[C@H](NC(=O)OC)c4ccccc4)[nH]3)c(-c3ccccc3)c2)[nH]1)C(C)C.Cl.Cl [2(7)•2HCl, [(S)-1-((S)-2-{5-[6-(4-{2-[(S)-1-((R)-2-Methoxycarbonylamino-2-phenyl-acetyl)-pyrrolidin-2-yl]-3H-imidazol-4-yl}-buta-1,3-diynyl)-biphenyl-3-yl]-1H-imidazol-2-yl}-pyrrolidine-1-carbonyl)-2-methyl-propyl]-carbamic acid methyl ester dihydrochloride] | 1.92 pM | 12.6 pM | 22.5 pM | 5.9 pM | 23 pM | 8.5 pM | 19.8 pM | 32% | – | – | – | – | bioavailability [8]: 31%
2 | COC(=O)N[C@H](C(=O)N1CCC[C@H]1c1ncc(-c2ccc(C#CC#Cc3cnc([C@@H]4CCCN4C(=O)[C@H](NC(=O)OC)c4ccccc4)[nH]3)c(-c3ccc(N(C)C)cc3)c2)[nH]1)C(C)C.Cl.Cl.Cl [2(14)•2HCl, [(S)-1-((S)-2-{5-[4′-Dimethylamino-6-(4-{2-[(S)-1-((R)-2-methoxycarbonylamino-2-phenyl-acetyl)-pyrrolidin-2-yl]-3H-imidazol-4-yl}-buta-1,3-diynyl)-biphenyl-3-yl]-1H-imidazol-2-yl}-pyrrolidine-1-carbonyl)-2-methyl-propyl]-carbamic acid methyl ester troihydrochloride] | – | – | – | – | – | – | – | – | – | – | – | – | EC50 ([1]; 10% FBS, read-out: gT1b 10% FBS, EC50 (pM) mean): 1.51 pM; EC50 ([1]; 40% NHS, read-out: gT1b 40% NHS, EC50 (pM) mean): 13 pM; EC50 [2]: 138 pM; EC50 [3]: 12.8 pM; EC50 ([4]; Huh7 replicon cells, mean, read-out: gT3a, EC50 (pM) mean): 38.5 pM; EC50 ([5]; Huh7 replicon cells, mean, read-out: gT4a, EC50 (pM) mean): 10.8 pM; EC50 ([6]; Huh7 replicon cells, mean, read-out: gT5a, EC50 (pM) mean): 52 pM; Cytotox gT1b 10% FBS max. inh. [9]: 23%
3 | COC(=O)N[C@H](C(=O)N1CCC[C@H]1c1ncc(-c2ccc(-c3ccc(-c4cnc([C@@H]5CCCN5C(=O)[C@H](NC(=O)OC)c5ccccc5)[nH]4)cc3)c(N(C)c3ccccc3)c2)[nH]1)C(C)C [2(25)•2HCl, [(S)-1-((S)-2-{5-[4′-{2-[(S)-1-((R)-2-Methoxycarbonylamino-2-phenyl-acetyl)-pyrrolidin-2-yl]-3H-imidazol-4-yl}-2-(methyl-phenyl-amino)-biphenyl-4-yl]-1H-imidazol-2-yl}-pyrrolidine-1-carbonyl)-2-methyl-propyl]-carbamic acid methyl ester trihydrochloride] | 1.72 pM | 11.5 pM | 345 pM | 5.5 pM | 24.2 pM | 13.9 pM | 43.2 pM | 18% | – | – | – | – | –
4 | COC(=O)N[C@H](C(=O)N1CCC[C@H]1c1ncc(-c2cc(F)c(-c3ccc(-c4cnc([C@@H]5CCCN5C(=O)[C@H](NC(=O)OC)c5ccccc5)[nH]4)cc3)c(-c3ccccc3)c2)[nH]1)C(C)C [2(26)•2HCl, ((S)-1-{(S)-2-[5-(6′-Fluoro-4-{2-[(S)-1-((R)-2-methoxycarbonylamino-2-phenyl-acetyl)-pyrrolidin-2-yl]-3H-imidazol-4-yl}-[1,1′;2′,1″]terphenyl-4′-yl)-1H-imidazol-2-yl]-pyrrolidine-1-carbonyl}-2-methyl-propyl)-carbamic acid methyl ester dihydrochloride] | 3.2 pM | 14.5 pM | 30.3 pM | 3.1 pM | – | 7.9 pM | 14.3 pM | 39% | – | – | – | – | EC50 ([4]; Hepatitis C virus, GT3A, Huh-7, read-out: gT3a, EC50 (pM) mean, Huh7 replicon cells): 9.2 pM; EC50 ([4]; Huh7 replicon cells, mean, dihydrochloride, read-out: gT3a, EC50 (pM) mean): 9.8 pM
5 | COC(=O)N[C@H](C(=O)N1CCC[C@H]1c1ncc(-c2cc(C)c(-c3ccc(-c4cnc([C@@H]5CCCN5C(=O)[C@H](NC(=O)OC)c5ccccc5)[nH]4)cc3)c(-c3ccccc3)c2)[nH]1)C(C)C [2(27)•2HCl, ((S)-1-{(S)-2-[5-(4-{2-[(S)-1-((R)-2-Methoxycarbonylamino-2-phenyl-acetyl)-pyrrolidin-2-yl]-3H-imidazol-4-yl}-6′-methyl-[1,1′;2′,1″]terphenyl-4′-yl)-1H-imidazol-2-yl]-pyrrolidine-1-carbonyl}-2-methyl-propyl)-carbamic acid methyl ester dihydrochloride] | 5.1 pM | 14.5 pM | 203 pM | 7.9 pM | 25.2 pM | 12.3 pM | 25.8 pM | 31% | – | – | – | – | –
6 | COC(=O)N[C@H](C(=O)N1CCC[C@H]1c1ncc(C#CC#Cc2ccc(-c3cnc([C@@H]4CCCN4C(=O)[C@@H](NC(=O)OC)C(C)C)[nH]3)cc2)[nH]1)C(C)C [AV-4025, Hepavivir] | – | – | – | – | – | – | – | – | 59 pM | 3.4 pM | 51 pM | 12 pM | EC50, pM HCV Genotype NS5A GT3a [13]: insufficient activities; EC50 [15]: 172 pM; EC50, pM HCV Genotype NS5A GT5a [15]: insufficient activities; Bioavailability in rat, F, % [16]: 65.0%
7 | COC(=O)N[C@H](C(=O)N1CC2(CC2)C[C@H]1c1nc(-c2ccc3c(c2)C(F)(F)c2cc(-c4ccc5[nH]c([C@@H]6[C@H]7CC[C@H](C7)N6C(=O)[C@@H](NC(=O)OC)C(C)C)nc5c4)ccc2-3)c[nH]1)C(C)C [Ledipasvir] | – | – | – | – | – | – | – | – | 31 pM | 5 pM | 20.8 pM | 7 pM | EC50 ([12]; listed as Ledipasvir (GS-5885)): 20800 pM; EC50 [13]: 10.1 pM; EC50, pM HCV Genotype NS5A GT3a [13]: insufficient activities; EC50 ([13]; listed as Ledipasvir (GS-5885)): 10100 pM; EC50, pM HCV Genotype NS5A GT5a [15]: insufficient activities
8 | COC(=O)N[C@H](C(=O)N1CCC[C@H]1C(=O)Nc1ccc([C@@H]2CC[C@@H](c3ccc(NC(=O)[C@@H]4CCCN4C(=O)[C@@H](NC(=O)OC)C(C)C)cc3)N2c2ccc(C(C)(C)C)cc2)cc1)C(C)C [Ombitasvir] | – | – | – | – | – | – | – | – | 14.1 pM | 5 pM | 12.4 pM | 1.7 pM | EC50 [13]: 19.3 pM; EC50 [15]: 4.3 pM
